Measurements taken from patent US10052320B2, “Substituted quinoxalines as FGFR kinase inhibitors” (ASTEX THERAPEUTICS LIMITED, priority 2011, dated 2018).
Where two headings read alike, the source gives them in different places.

Experiments:
[1] = biological target: FGFR4 (h) (Homo sapiens, UniProt P22455); experiment: FGFR4 (enzymatic assay), TR-FRET; type: biochemical; conditions: read-out: FGFR 4 pIC50 (converted)
Protocol: (§1) In a final reaction volume of 30 μL, FGFR4 (h) (60 ng/ml) was incubated with 50 mM HEPES pH 7.5, 6 mM MnCl2, 1 mM DTT, 0.1 mM Na3VO4, 0.01% Triton-X-100, 500 nM Btn-Flt3 and 5 μM ATP in the presence of compound (1% DMSO final). […] Time-Resolved Fluorescence Resonance Energy Transfer (TR-FRET) signal (ex340 nm. Em 620 nm, em 655 nm) was measured afterwards and results are expressed in RFU (Relative Fluorescence Units).

[2] = system: Ba/F3-Flt3-transfected cells in the presence of 10 ng/ml murine IL3; experiment: Ba/F3-Flt3 (plus IL3) cellular proliferation counterscreen, Alamar Blue; type: cell-based; conditions: Mus musculus, read-out: BAF3-FLT3 (PLUS IL3) 96 well pIC50 (converted)
[3] = biological target: FGFR3 (h) (Homo sapiens, UniProt P22607); experiment: FGFR3 (enzymatic assay), TR-FRET; type: biochemical; conditions: read-out: FGFR 3 pIC50 (converted)
Sequence of FGFR3 (h) (P22607 23-806): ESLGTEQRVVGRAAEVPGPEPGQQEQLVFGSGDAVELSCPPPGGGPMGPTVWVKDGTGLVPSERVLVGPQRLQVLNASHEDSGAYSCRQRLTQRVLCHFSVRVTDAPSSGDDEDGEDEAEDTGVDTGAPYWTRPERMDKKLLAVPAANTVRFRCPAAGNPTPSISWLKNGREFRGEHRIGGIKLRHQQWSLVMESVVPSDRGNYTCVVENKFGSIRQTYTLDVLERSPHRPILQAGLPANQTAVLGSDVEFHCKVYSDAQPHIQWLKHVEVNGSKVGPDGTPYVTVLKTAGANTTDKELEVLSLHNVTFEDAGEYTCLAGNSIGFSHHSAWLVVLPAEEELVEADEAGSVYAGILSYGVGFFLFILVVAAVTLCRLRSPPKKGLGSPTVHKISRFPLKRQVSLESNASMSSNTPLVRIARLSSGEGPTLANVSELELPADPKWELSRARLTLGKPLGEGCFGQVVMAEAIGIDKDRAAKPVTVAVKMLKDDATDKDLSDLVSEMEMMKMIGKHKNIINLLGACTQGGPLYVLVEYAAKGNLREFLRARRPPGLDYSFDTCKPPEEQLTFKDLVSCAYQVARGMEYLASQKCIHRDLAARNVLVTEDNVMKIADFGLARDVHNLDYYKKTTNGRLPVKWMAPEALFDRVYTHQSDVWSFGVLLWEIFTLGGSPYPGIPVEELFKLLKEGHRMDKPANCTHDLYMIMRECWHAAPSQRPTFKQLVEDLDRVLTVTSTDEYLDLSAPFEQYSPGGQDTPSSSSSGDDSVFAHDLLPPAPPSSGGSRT
Protocol: as §1, with “μL, FGFR3” for “μL, FGFR4”, “(h) (40” for “(h) (60”, “and 25” for “and 5”

[4] = biological target: Ba/F3-KDR-transfected cells (Homo sapiens, UniProt P35968); experiment: Ba/F3-KDR (minus IL3) cellular proliferation assay, Alamar Blue; type: cell-based
Sequence of Ba/F3-KDR-transfected cells (P35968 whole entry, change not shown): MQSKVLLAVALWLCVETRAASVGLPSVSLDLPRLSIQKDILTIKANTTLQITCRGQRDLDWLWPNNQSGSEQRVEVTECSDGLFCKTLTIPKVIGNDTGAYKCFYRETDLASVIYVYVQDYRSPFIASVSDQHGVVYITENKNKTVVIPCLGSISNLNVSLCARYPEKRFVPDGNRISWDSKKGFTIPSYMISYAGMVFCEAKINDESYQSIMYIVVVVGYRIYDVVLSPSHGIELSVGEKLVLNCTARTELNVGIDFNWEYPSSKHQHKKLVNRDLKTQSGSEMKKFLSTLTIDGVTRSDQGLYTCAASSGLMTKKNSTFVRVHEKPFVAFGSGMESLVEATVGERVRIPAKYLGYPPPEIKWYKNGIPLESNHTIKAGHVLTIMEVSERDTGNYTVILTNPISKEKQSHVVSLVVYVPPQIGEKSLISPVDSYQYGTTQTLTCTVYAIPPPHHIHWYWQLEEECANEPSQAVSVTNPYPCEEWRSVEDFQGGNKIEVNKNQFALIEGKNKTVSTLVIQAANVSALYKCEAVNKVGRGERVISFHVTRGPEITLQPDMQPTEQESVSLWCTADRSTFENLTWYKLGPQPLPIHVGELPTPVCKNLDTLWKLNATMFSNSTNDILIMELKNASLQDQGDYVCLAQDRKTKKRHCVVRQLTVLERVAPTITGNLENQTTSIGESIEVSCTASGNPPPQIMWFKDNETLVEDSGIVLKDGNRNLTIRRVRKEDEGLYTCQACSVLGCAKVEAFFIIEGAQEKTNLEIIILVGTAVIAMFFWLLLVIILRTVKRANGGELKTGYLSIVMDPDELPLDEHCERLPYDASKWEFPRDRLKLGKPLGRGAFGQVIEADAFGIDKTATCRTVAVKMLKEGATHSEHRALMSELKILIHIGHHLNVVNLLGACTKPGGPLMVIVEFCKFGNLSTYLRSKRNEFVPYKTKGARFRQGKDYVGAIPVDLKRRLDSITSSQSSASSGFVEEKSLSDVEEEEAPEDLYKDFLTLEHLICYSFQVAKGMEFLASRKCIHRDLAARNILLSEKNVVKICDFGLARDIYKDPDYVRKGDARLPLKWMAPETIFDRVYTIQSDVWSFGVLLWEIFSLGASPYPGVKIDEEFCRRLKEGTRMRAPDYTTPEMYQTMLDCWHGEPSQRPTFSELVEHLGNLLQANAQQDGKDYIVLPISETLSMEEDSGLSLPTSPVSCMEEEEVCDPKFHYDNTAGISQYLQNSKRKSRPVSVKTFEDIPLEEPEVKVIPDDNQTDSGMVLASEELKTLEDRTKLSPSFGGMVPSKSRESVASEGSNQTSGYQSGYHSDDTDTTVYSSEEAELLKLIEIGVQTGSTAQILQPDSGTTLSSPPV
Method in brief: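 Proliferation of KDR-transfected Ba/F3 cells is measured by Alamar Blue fluorescence after 24 h with compound plus 4 h resazurin at 37 °C. For the counterscreen, 10 ng/ml murine IL3 is present.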

[5] = system: Ba/F3-KDR-transfected cells in the presence of 10 ng/ml murine IL3; experiment: Ba/F3-KDR (plus IL3) cellular proliferation counterscreen, Alamar Blue; type: cell-based; conditions: Mus musculus; plus 10 ng/ml murine IL3; read-out: BAF3-KDR (PLUS IL3) 384 well pIC50 (converted)
Protocol: Ba/F3-KDR (Minus IL3 or Plus IL3) (Cellular Proliferation Assay)
[…] Cells were put in an incubator at 37° C. and 5% CO2. After 24 hours, 10 μl of Alamar Blue solution (0.5 mM K3Fe(CN)6, 0.5 mM KaFe(CN)6, 0.15 mM Resazurin and 100 mM Phosphate Buffer) was added to the wells, incubated for 4 hours at 37° C. and 5% CO2 before RFU's (Relative Fluorescence Units) (ex. 540 nm., em. 590 nm.) were measured in a flurorescence plate reader.
(§2) As a counterscreen the same experiment was performed in the presence of 10 ng/ml murine IL3.
(§3) In a 96 well plate, 180 μl cell culture medium (phenol red free RPMI-1640, 10% FBS, 2 mM L-Glutamine and 50 μg/ml Gentamycin) containing 10000 cells per well of Ba/F3-KDR-transfected cells were pipette and 20 μl of compound dilution in DMSO was added. Cells were put in an incubator at 37° C. and 5% CO2. After 24 hours, 40 μl of Alamar Blue solution (0.5 mM K3Fe(CN)6, 0.5 mM KaFe(CN)6, 0.15 mM Resazurin and 100 mM Phosphate Buffer) was added to the wells, incubated for 4 hours at 37° C. and 5% CO2 RFU's (Relative Fluorescence Units) (ex. 540 nm., em. 590 nm.) were measured in a flurorescence plate reader.

[6] = system: Ba/F3-FGFR3-transfected cells in the presence of 10 ng/ml murine IL3; experiment: Ba/F3-FGFR3 (plus IL3) cellular proliferation counterscreen, Alamar Blue; type: cell-based; conditions: Mus musculus; plus 10 ng/ml murine IL3; 384 well; read-out: BAF3-FGFR 3 (PLUS IL3) 384 well pIC50 (converted)
Protocol: Ba/F3-FGFR3 (Minus IL3 or Plus IL3) (Cellular Proliferation Assay)
In a 384 well plate, 100 nl of compound dilution in DMSO was sprayed before adding 50 μl cell culture medium (phenol red free RPMI-1640, 10% FBS, 2 mM L-Glutamine and 50 μg/ml Gentamycin) containing 20000 cells per well of Ba/F3-FGFR3-transfected cells. Cells were put in an incubator at 37° C. and 5% CO2. After 24 hours, 10 μl of Alamar Blue solution (0.5 mM K3Fe(CN)6, 0.5 mM KaFe(CN)6, 0.15 mM Resazurin and 100 mM Phosphate Buffer) was added to the wells, incubated for 4 hours at 37° C. and 5% CO2 before RFU's (Relative Fluorescence Units) (ex. 540 nm., em. 590 nm.) were measured in a flurorescence plate reader.
as §2
as §3, with “well of Ba/F3-FGFR3-transfected cells were” for “well of Ba/F3-KDR-transfected cells were”, “5% CO2 before RFU's (Relative” for “5% CO2 RFU's (Relative”

Sequence of FGFR4 (h) (P22455 22-802): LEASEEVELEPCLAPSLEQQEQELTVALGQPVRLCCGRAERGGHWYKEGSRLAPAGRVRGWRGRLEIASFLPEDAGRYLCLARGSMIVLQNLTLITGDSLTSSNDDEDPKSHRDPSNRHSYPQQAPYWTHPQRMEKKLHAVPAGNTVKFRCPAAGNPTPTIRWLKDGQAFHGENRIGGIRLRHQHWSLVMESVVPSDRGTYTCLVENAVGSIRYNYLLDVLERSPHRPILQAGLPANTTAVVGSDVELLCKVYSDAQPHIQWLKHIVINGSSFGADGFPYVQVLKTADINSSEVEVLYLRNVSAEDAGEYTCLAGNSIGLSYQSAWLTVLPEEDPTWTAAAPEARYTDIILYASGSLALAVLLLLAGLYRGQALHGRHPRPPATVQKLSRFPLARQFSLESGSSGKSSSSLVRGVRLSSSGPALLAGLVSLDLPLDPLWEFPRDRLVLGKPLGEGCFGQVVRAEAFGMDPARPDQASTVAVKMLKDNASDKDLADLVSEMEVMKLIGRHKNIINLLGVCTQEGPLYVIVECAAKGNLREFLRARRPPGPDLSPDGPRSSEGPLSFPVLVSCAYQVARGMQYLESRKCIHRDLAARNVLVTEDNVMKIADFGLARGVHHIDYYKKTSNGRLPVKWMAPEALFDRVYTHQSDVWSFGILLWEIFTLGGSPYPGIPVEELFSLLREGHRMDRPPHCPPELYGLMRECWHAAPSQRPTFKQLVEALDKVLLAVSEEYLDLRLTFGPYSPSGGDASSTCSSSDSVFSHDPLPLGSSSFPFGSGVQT

Row | Structure (SMILES) | IC50 [1] [nM] | IC50 ([2]; plus IL3, 96 well) [nM] | IC50 [3] [nM] | melting point [°C] | BAF3-KDR (MIN IL3) 384 well pIC50 ([4]; minus IL3, 384 well) | IC50 ([2]; plus 10 ng/ml murine IL3) [nM] | BAF3-KDR (MIN IL3) 384 well pIC50 ([4]; minus IL3) | IC50 [5] [nM] | IC50 [6] [nM]
1 | COc1cc(OC)cc(N(CC2CC2)c2ccc3ncc(C#Cc4cncn4C)nc3c2)c1 [Compound 22] | 275 | > 10000 | 34.7 | 166 | <5 | – | – | – | –
2 | COc1cc(OC)cc(N(CC2CC2)c2ccc3ncc(C(=O)Nc4cncn4C)nc3c2)c1 [Compound 27] | > 10000 | – | 2630 | 180 | – | > 10000 | <5 | – | –
3 | COc1cc(OC)cc(N(CC2CC2)c2ccc3ncc(-c4ccnc(N5CCN(C)CC5)c4)nc3c2)c1 [Compound 37] | 302 | ~4680 | 36.3 | 125 | <5 | – | – | – | –
4 | COc1cc(OC)cc(N(CC2CC2)c2ccc3ncc(N4CCN(CCO)CC4)nc3c2)c1 [Compound 49] | 1580 | – | 126 | – | – | > 10000 | <5 | – | –
5 | COc1cc(OC)cc(N(CC2CC2)c2ccc3ncc(N4CCN(C)CC4)nc3c2)c1 [Compound 64] | 2880 | > 10000 | 191 | 92 | <5 | – | – | – | –
6 | COc1cc(OC)cc(N(CCCNCC(F)(F)F)c2ccc3ncc(-c4ccnc(Cl)c4)nc3c2)c1 [Compound 145] | 871 | – | 97.7 | 130 | – | – | <5 | > 10000 | > 10000
7 | COc1cc(OC)cc(N(CCCNCC(F)(F)F)c2ccc3ncc(-c4ccnc(C(=O)NCCCCCO)c4)nc3c2)c1 [Compound 150] | 224 | – | 49 | 95 | – | – | <5 | > 10000 | > 10000
8 | COc1cc(OC)cc(N(CCO)c2ccc3ncc(-c4ccccc4CCO)nc3c2)c1 [Compound 151] | 891 | – | 200 | 133 | – | – | <5 | > 10000 | > 10000
9 | COc1cc(OC)cc(N(CCO)c2ccc3ncc(-c4ccc(N5CCN(C(=O)OC(C)(C)C)CC5)cc4)nc3c2)c1 [Compound 156] | 95.5 | – | 24 | 80 | – | – | <5 | > 10000 | > 10000
10 | COc1cc(OC)cc(N(CCO)c2ccc3ncc(-c4ccc(N5CCN(C)CC5)nc4)nc3c2)c1 [Compound 163] | 120 | – | 7.94 | 160 | – | – | 5.3 | 7590 | > 10000
11 | COc1cc(OC)cc(N(CCO)c2ccc3ncc(-c4ccc(N5CCNCC5)nc4)nc3c2)c1 [Compound 165] | 28.8 | – | 4.9 | 171 | – | – | 5.36 | > 10000 | > 10000
12 | COc1cc(OC)cc(N(CCO)c2ccc3ncc(-c4ccc(N5CCNCC5)cc4)nc3c2)c1 [Compound 166] | 7.24 | – | 0.832 | 194 | – | – | 5.55 | 6030 | ~6030
13 | COc1cc(OC)cc(N(CCNC(C)C)c2ccc3ncc(-n4cnc(COC(C)=O)c4)nc3c2)c1 [Compound 167] | 31.6 | – | 11 | 56 | – | – | <5 | > 10000 | > 10000
14 | COc1cc(OC)cc(N(CCNC(C)C)c2ccc3ncc(-c4ccc(N5CCOCC5)nc4)nc3c2)c1 [Compound 168] | 8.32 | – | 3.24 | 135 | – | – | 5.75 | 7080 | ~9330
15 | COc1cc(OC)cc(N(CCN2CCOCC2)c2ccc3ncc(-c4ccc(N)nc4)nc3c2)c1 [Compound 169] | 53.7 | – | 6.46 | 164 | – | – | 5.1 | > 10000 | > 10000
16 | COc1cc(OC)cc(N(CCO)c2ccc3ncc(/C(C)=N/OC(C)(C)C)nc3c2)c1 [Compound 171] | 871 | – | 501 | 147 | – | – | <5 | > 10000 | > 10000
17 | COc1cc(OC)cc(N(CCO)c2ccc3ncc(C4=CCN(C(=O)OC(C)(C)C)C4)nc3c2)c1 [Compound 173] | 100 | – | 10.2 | 142 | – | – | <5 | > 10000 | > 10000
18 | COc1cc(OC)cc(N(CCO)c2ccc3ncc(C4=CCN(C(=O)OC(C)(C)C)CC4)nc3c2)c1 [Compound 178] | 56.2 | – | 2.88 | 150 | – | – | <5 | > 10000 | > 10000
19 | COc1cc(OC)cc(N(CCNC(C)C)c2ccc3ncc(C(=O)NCCCN4CCCCC4)nc3c2)c1 [Compound 182] | 603 | – | 126 | 121 | – | – | <5 | > 10000 | ~6920
20 | COc1cc(OC)cc(N(CC#Cc2ncccc2OC)c2ccc3ncc(-c4cccnc4)nc3c2)c1 [Compound 183] | 427 | – | 162 | 141 | – | – | <5 | > 10000 | > 10000
21 | COc1cc(OC)cc(N(CCO)c2ccc3ncc(C(=O)Nc4cnn(C)c4)nc3c2)c1 [Compound 184] | 309 | – | 110 | 227 | – | – | <5 | > 10000 | > 10000
22 | COc1cc(OC)cc(N(CCNC(C)C)c2ccc3ncc(-c4ccnn4C4CCCCO4)nc3c2)c1 (stereo not drawn) [Compound 188] | 70.8 | – | 17.8 | 122 | – | – | 5.14 | > 10000 | > 10000
